Experimental data as given in US9801961B2, “2-phenylimidazo[1,2-a]pyrimidines as imaging agents” (Hoffmann-La Roche Inc., priority 2013, dated 2017).

Tested on: native tau aggregates
Assay: TAU radioligand in vitro displacement assay ([3H]T808 autoradiography on human AD brain sections)
Type: binding
Conditions: compound 10 nM, radioligand [3H]T808 10 nM, 50 mM Tris pH 7.4, room temperature, 30 min
Experimental: TAU Radioligand-In-Vitro Displacement Assay
This in vitro binding assay assesses the affinity of compounds for native tau aggregates. The compounds are co-incubated with the well-established tau specific radioligand [^3H]T808 and the compound's displacement potency of [^3H]T808 binding is determined by in vitro autoradiography using human Alzheimer's disease (AD) brain sections (FIG. 1).
AD human brains are purchased from Banner Sun Health Research Institute (Sun City, Ariz., USA). Pathological diagnosis of AD is made according to standard NIA-Reagan Institute criteria based on neuropathological data. The radioligand [^3H]T808 was synthesized in-house ([^3H]-2-[4-(2-Fluoro-ethyl)-piperidin-1-yl]-benzo[4,5]imidazo[1,2-a]pyrimidine, radiochemical purity 99.0%). As a reference cold T808 is used (2-[4-(2-Fluoro-ethyl)-piperidin-1-yl]-benzo[4,5]imidazo[1,2-a]pyrimidine). For the autoradiography FujiFilm Imaging Plates (BAS-IP TR 2025) are exposed to the sections and read with a FujiFilm IP reader (BAS-5000).
Ten μm thick human AD brain sections are generated with a cryostat (Leica CM3050) at −17° C. chamber temperature and −15° C. object temperature. Sections are transferred to Histobond+microscope slides (Marienfeld Laboratory Glasware). After drying for 3 hours at room temperature the sections are stored at −20° C. The sections are incubated with the radioligand (10 nM) and the respective cold compound (at various concentrations) in 50 mM Tris buffer, pH 7.4 at room temperature for 30 min. After washing 3×10 min at 4° C. in 50 mM Tris buffer, pH 7.4 and 3 quick dips in H2O dist. at 4° C. the sections are dried at 4° C. for 3 h. The sections are placed in a FujiFilm Cassette (BAS 2025), exposed with an Imaging Plate for five days and afterwards scanned with a resolution of […].
The signal intensity (Dens—PSL/mm2) in the region of interest (ROI) of the autoradiogram is quantified with the software MCID analysis (version 7.0, Imaging Research Inc.). The specific binding (SB) of [^3H]T808 binding in absence or in presence of a compound is calculated by subtracting the non-specific binding signal in the white matter, thus yielding SB[3H]T808 only and SBcompund. The % displacement by the various compounds is calculated as following: % displacement=100−(SBcompund/SB[3H]T808 only)*100.
In each experiment cold T808 is used as a positive internal control. Co-incubation of equimolar amounts of hot and cold T808 is expected to reduce specific binding by approximately 50%.

| % displacement of [3H]T808 (10 nM) at 10 nM | SMILES |
| --- | --- |
| 25% | FCCOc1ccc(-c2cn3ccc(N4CCC4)nc3n2)cc1 [Example 111, 7-(Azetidin-1-yl)-2-(4-(2-fluoroethoxy)phenyl)imidazo[1,2-a]pyrimidine] |
| 18% | CNc1ccn2cc(-c3ccc(O)c(OC)c3)nc2n1 [Example 98, 2-Methoxy-4-[7-(methylamino)imidazo[1,2-a]pyrimidin-2-yl]phenol] |
| 40% | CNc1ccn2cc(-c3cccc(OC)c3)nc2n1 [Example 117, 2-(3-Methoxyphenyl)-N-methylimidazo[1,2-a]pyrimidin-7-amine] |
| 16% | CNc1ccn2cc(-c3cccc(O)c3)nc2n1 [Example 125, 3-(7-(Methylamino)imidazo[1,2-a]pyrimidin-2-yl)phenol] |
| 27% | FCOc1cccc(-c2cn3ccc(N4CCCC4)nc3n2)c1 [Example 16, 2-[3-(Fluoromethoxy)phenyl]-7-pyrrolidin-1-ylimidazo[1,2-a]pyrimidine] |
| 33% | COc1cccc(-c2cn3ccc(N4CCC(F)CC4)nc3n2)c1 [Example 5, 7-(4-Fluoropiperidin-1-yl)-2-(3-methoxyphenyl)imidazo[1,2-a]pyrimidine] |
| 14% | Cc1cccc(-c2cn3ccc(N(C)CCOCCF)nc3n2)c1 [Example 68, N-[2-(2-Fluoroethoxy)ethyl]-N-methyl-2-(3-methylphenyl)imidazo[1,2-a]pyrimidin-7-amine] |
| 33% | COc1ccc(-c2cn3ccc(N(C)CCF)nc3n2)cc1 [Example 23, N-(2-Fluoroethyl)-2-(4-methoxyphenyl)-N-methylimidazo[1,2-a]pyrimidin-7-amine] |

The remaining lines, values behind:

| SMILES | % displacement of [3H]T808 (10 nM) at 10 nM |
| --- | --- |
| COc1ccc(-c2cn3ccc(N4CC[C@@H](F)C4)nc3n2)cc1 [Example 33, 7-[(3R)-3-Fluoropyrrolidin-1-yl]-2-(4-methoxyphenyl)imidazo[1,2-a]pyrimidine] | 25% |
| COc1ccc(-c2cn3ccc(N4CCCCC4)nc3n2)cc1OC [Example 53, 2-(3,4-Dimethoxyphenyl)-7-piperidin-1-ylimidazo[1,2-a]pyrimidine] | 6% |
| FCCC1CCN(c2ccn3cc(-c4ccc(N5CCOCC5)cc4)nc3n2)CC1 [Example 61, 4-[4-[7-[4-(2-Fluoroethyl)piperidin-1-yl]imidazo[1,2-a]pyrimidin-2-yl]phenyl]morpholine] | 10% |
| FCCC1CCN(c2ccn3cc(-c4ccccc4)nc3n2)CC1 [Example 54, 7-[4-(2-Fluoroethyl)piperidin-1-yl]-2-phenylimidazo[1,2-a]pyrimidine] | 14% |
| COc1ccc(-c2cn3ccc(N4CCC(CCF)CC4)nc3n2)cc1 [Example 56, 7-[4-(2-Fluoroethyl)piperidin-1-yl]-2-(4-methoxyphenyl)imidazo[1,2-a]pyrimidine] | 9% |

Same assay, conditions: compound 1 uM, radioligand [3H]T808 10 nM, 50 mM Tris pH 7.4, room temperature, 30 min

| % displacement of [3H]T808 (10 nM) at 1 uM | SMILES |
| --- | --- |
| 76% | FCCOc1cccc(-c2cn3ccc(N4CCCC4)nc3n2)c1 [Example 17, 2-[3-(2-Fluoroethoxy)phenyl]-7-pyrrolidin-1-ylimidazo[1,2-a]pyrimidine] |
| 82% | COc1cccc(-c2cn3ccc(N(C)CCF)nc3n2)c1 [Example 22, N-(2-Fluoroethyl)-2-(3-methoxyphenyl)-N-methylimidazo[1,2-a]pyrimidin-7-amine] |
| 88% | FCOc1cccc(-c2cn3ccc(N4CCCC4)nc3n2)c1 [Example 16, 2-[3-(Fluoromethoxy)phenyl]-7-pyrrolidin-1-ylimidazo[1,2-a]pyrimidine] |
| 74% | COc1cccc(-c2cn3ccc(N4CCC(F)CC4)nc3n2)c1 [Example 5, 7-(4-Fluoropiperidin-1-yl)-2-(3-methoxyphenyl)imidazo[1,2-a]pyrimidine] |
| 92% | COc1ccc(-c2cn3ccc(N(C)CCF)nc3n2)cc1 [Example 23, N-(2-Fluoroethyl)-2-(4-methoxyphenyl)-N-methylimidazo[1,2-a]pyrimidin-7-amine] |

Further lines, the compound ahead of its results:

| SMILES | % displacement of [3H]T808 (10 nM) at 1 uM |
| --- | --- |
| Oc1cccc(-c2cn3ccc(N4CCC(F)CC4)nc3n2)c1 [Example 13, 3-[7-(4-Fluoropiperidin-1-yl)imidazo[1,2-a]pyrimidin-2-yl]phenol] | 67% |
| Fc1ccccc1-c1cn2ccc(N3CCC(F)CC3)nc2n1 [Example 12, 2-(2-Fluorophenyl)-7-(4-fluoropiperidin-1-yl)imidazo[1,2-a]pyrimidine] | 50% |
